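Cells were grown in 96-well plates and exposed to each compound for 48 hours at five concentrations; endpoints were interpolated linearly between bracketing concentrations, or set to the highest concentration if not reached. Abbreviation: GI50, concentration required for 50% inhibition of growth. TGI denotes the concentration required for complete inhibition of growth.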
Columns and labels:
Experiment in all cases: growth of human tumour cells (NCI), 48 h
MCF7 breast = test system: MCF7 breast
NCI-H226 lung = test system: NCI-H226 lung
RPMI-8226 leukemia = test system: RPMI-8226 leukemia
HL-60(TB) leukemia = test system: HL-60(TB) leukemia
KM12 colon = test system: KM12 colon
ACHN renal = test system: ACHN renal
OVCAR-8 ovarian = test system: OVCAR-8 ovarian
RXF 393 renal = test system: RXF 393 renal
786-0 renal = test system: 786-0 renal
SK-MEL-2 melanoma = test system: SK-MEL-2 melanoma
SF-268 CNS = test system: SF-268 CNS
SK-MEL-5 melanoma = test system: SK-MEL-5 melanoma
MALME-3M melanoma = test system: MALME-3M melanoma
A498 renal = test system: A498 renal
SNB-19 CNS = test system: SNB-19 CNS
HOP-92 NSCLC = test system: HOP-92 NSCLC
TK-10 renal = test system: TK-10 renal
M14 melanoma = test system: M14 melanoma
SN12C renal = test system: SN12C renal
NCI-H522 lung = test system: NCI-H522 lung
HT29 colon = test system: HT29 colon
DU-145 prostate = test system: DU-145 prostate
SK-OV-3 ovarian = test system: SK-OV-3 ovarian
HCT-116 colon = test system: HCT-116 colon
NCI-H23 lung = test system: NCI-H23 lung
NCI/ADR-RES ovarian = test system: NCI/ADR-RES ovarian
OVCAR-5 ovarian = test system: OVCAR-5 ovarian
SW-620 colon = test system: SW-620 colon
UACC-257 melanoma = test system: UACC-257 melanoma
A549 NSCLC = test system: A549 NSCLC
PC-3 prostate = test system: PC-3 prostate
HCT-15 colon = test system: HCT-15 colon
SK-MEL-28 melanoma = test system: SK-MEL-28 melanoma
K-562 leukemia = test system: K-562 leukemia
SF-295 CNS = test system: SF-295 CNS
SNB-75 CNS = test system: SNB-75 CNS
MDA-MB-435 = test system: MDA-MB-435
MDA-MB-231 breast = test system: MDA-MB-231 breast
OVCAR-3 ovarian = test system: OVCAR-3 ovarian
COLO 205 colon = test system: COLO 205 colon
HOP-62 NSCLC = test system: HOP-62 NSCLC
BT-549 breast = test system: BT-549 breast
HS 578T breast = test system: HS 578T breast
NCI-H460 lung = test system: NCI-H460 lung
CCRF-CEM leukemia = test system: CCRF-CEM leukemia
LOX IMVI melanoma = test system: LOX IMVI melanoma
OVCAR-4 ovarian = test system: OVCAR-4 ovarian
IGROV1 ovarian = test system: IGROV1 ovarian
U251 CNS = test system: U251 CNS
HCC-2998 colon = test system: HCC-2998 colon
SF-539 CNS = test system: SF-539 CNS
EKVX NSCLC = test system: EKVX NSCLC
CAKI-1 renal = test system: CAKI-1 renal
UACC-62 melanoma = test system: UACC-62 melanoma
SR leukemia = test system: SR leukemia
UO-31 renal = test system: UO-31 renal
MOLT-4 leukemia = test system: MOLT-4 leukemia
T-47D breast = test system: T-47D breast

Cc1oc2c(C(=O)N/N=C\c3ccc(O)cc3O)c[nH]c2c1C
GI50 (MCF7 breast): 0.521 µM | TGI (MCF7 breast): > 33.6 µM | GI50 (NCI-H226 lung): 4.14 µM | TGI (NCI-H226 lung): 24.3 µM | GI50 (RPMI-8226 leukemia): 0.445 µM | TGI (RPMI-8226 leukemia): 17.4 µM | GI50 (HL-60(TB) leukemia): 0.337 µM | GI50 (KM12 colon): 1.1 µM | TGI (KM12 colon): > 73.4 µM | GI50 (ACHN renal): 0.339 µM | TGI (ACHN renal): 13.7 µM | GI50 (OVCAR-8 ovarian): 0.664 µM | TGI (OVCAR-8 ovarian): 39.7 µM | GI50 (RXF 393 renal): 0.58 µM | TGI (RXF 393 renal): 16.7 µM | GI50 (786-0 renal): 0.464 µM | TGI (786-0 renal): 7.49 µM | GI50 (SK-MEL-2 melanoma): 10.4 µM | TGI (SK-MEL-2 melanoma): > 100 µM | GI50 (SF-268 CNS): 0.662 µM | TGI (SF-268 CNS): > 44.4 µM | GI50 (SK-MEL-5 melanoma): 1.02 µM | TGI (SK-MEL-5 melanoma): 15.7 µM | GI50 (MALME-3M melanoma): 2.23 µM | TGI (MALME-3M melanoma): 25.3 µM | GI50 (A498 renal): 6.62 µM | TGI (A498 renal): 39.3 µM | GI50 (SNB-19 CNS): 1.32 µM | TGI (SNB-19 CNS): > 42 µM | GI50 (HOP-92 NSCLC): 0.541 µM | TGI (HOP-92 NSCLC): 9.21 µM | GI50 (TK-10 renal): 1.03 µM | TGI (TK-10 renal): > 64.8 µM | GI50 (M14 melanoma): 0.756 µM | TGI (M14 melanoma): 17.3 µM | GI50 (SN12C renal): 2.54 µM | TGI (SN12C renal): > 48.4 µM | GI50 (NCI-H522 lung): 0.704 µM | TGI (NCI-H522 lung): 63.9 µM | GI50 (HT29 colon): 2.85 µM | TGI (HT29 colon): > 48.2 µM | GI50 (DU-145 prostate): 1.32 µM | TGI (DU-145 prostate): > 41.1 µM | GI50 (SK-OV-3 ovarian): 0.68 µM | TGI (SK-OV-3 ovarian): 17.4 µM | GI50 (HCT-116 colon): 0.424 µM | TGI (HCT-116 colon): 32.5 µM | GI50 (NCI-H23 lung): 1.49 µM | TGI (NCI-H23 lung): 24.3 µM | GI50 (NCI/ADR-RES ovarian): 0.295 µM | TGI (NCI/ADR-RES ovarian): 23.3 µM | GI50 (OVCAR-5 ovarian): 3.89 µM | TGI (OVCAR-5 ovarian): > 45.2 µM | GI50 (SW-620 colon): 0.801 µM | TGI (SW-620 colon): > 37 µM | GI50 (UACC-257 melanoma): 0.644 µM | TGI (UACC-257 melanoma): 3.08 µM | GI50 (A549 NSCLC): 0.518 µM | TGI (A549 NSCLC): 13.2 µM | GI50 (PC-3 prostate): 0.579 µM | TGI (PC-3 prostate): > 45.6 µM | GI50 (HCT-15 colon): 0.175 µM | TGI (HCT-15 colon): > 100 µM | GI50 (SK-MEL-28 melanoma): 2.12 µM | TGI (SK-MEL-28 melanoma): > 41.7 µM | GI50 (K-562 leukemia): 1.14 µM | TGI (K-562 leukemia): > 100 µM | GI50 (SF-295 CNS): 0.435 µM | TGI (SF-295 CNS): 29.6 µM | GI50 (SNB-75 CNS): 3.57 µM | TGI (SNB-75 CNS): > 39.6 µM | GI50 (MDA-MB-435): 4.52 µM | TGI (MDA-MB-435): > 100 µM | GI50 (MDA-MB-231 breast): 8.13 µM | TGI (MDA-MB-231 breast): > 45.9 µM | GI50 (OVCAR-3 ovarian): 0.368 µM | TGI (OVCAR-3 ovarian): > 39.4 µM | GI50 (COLO 205 colon): 0.29 µM | GI50 (HOP-62 NSCLC): 0.754 µM | TGI (HOP-62 NSCLC): 26.3 µM | GI50 (BT-549 breast): 2.05 µM | TGI (BT-549 breast): > 54.6 µM | GI50 (HS 578T breast): 6.71 µM | TGI (HS 578T breast): > 60.7 µM | GI50 (NCI-H460 lung): 0.347 µM | TGI (NCI-H460 lung): 7.28 µM | GI50 (CCRF-CEM leukemia): 0.19 µM | TGI (CCRF-CEM leukemia): > 100 µM | GI50 (LOX IMVI melanoma): 0.409 µM | TGI (LOX IMVI melanoma): 10.6 µM | GI50 (OVCAR-4 ovarian): 0.414 µM | TGI (OVCAR-4 ovarian): > 47.1 µM | GI50 (IGROV1 ovarian): 0.593 µM | TGI (IGROV1 ovarian): 44.5 µM | GI50 (U251 CNS): 0.57 µM | TGI (U251 CNS): 15.4 µM | GI50 (HCC-2998 colon): 0.876 µM | TGI (HCC-2998 colon): > 50.6 µM | GI50 (SF-539 CNS): 0.84 µM | TGI (SF-539 CNS): 12.5 µM | GI50 (EKVX NSCLC): 0.46 µM | TGI (EKVX NSCLC): > 54.2 µM | GI50 (CAKI-1 renal): 0.739 µM | TGI (CAKI-1 renal): 26.7 µM | GI50 (UACC-62 melanoma): 0.665 µM | TGI (UACC-62 melanoma): 8.32 µM | GI50 (SR leukemia): 4.47 µM | TGI (SR leukemia): > 100 µM | GI50 (UO-31 renal): 0.208 µM | TGI (UO-31 renal): 13.9 µM | GI50 (MOLT-4 leukemia): 0.44 µM | TGI (MOLT-4 leukemia): > 100 µM | GI50 (T-47D breast): 1.79 µM | TGI (T-47D breast): > 43.2 µM

— PubChem BioAssay (NCI)
